Molecular target: T1, HMGB1 (Mus musculus, UniProt P63158)
T1 construct: 6His-tagged form for MST
T1 sequence (P63158 2-215): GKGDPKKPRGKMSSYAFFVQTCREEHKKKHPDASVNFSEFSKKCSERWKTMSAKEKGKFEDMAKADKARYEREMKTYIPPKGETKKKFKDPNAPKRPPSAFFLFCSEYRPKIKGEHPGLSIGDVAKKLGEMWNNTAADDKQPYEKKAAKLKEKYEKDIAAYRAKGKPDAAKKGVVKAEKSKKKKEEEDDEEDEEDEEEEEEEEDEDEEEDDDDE
Assay: 1H-15N HSQC NMR titration (CSP fit)
Format: binding
Settings: read-out: apparent Kd

Kd: > 10 mM
Structure (SMILES): O=C(/C=C/c1ccc(O)c(O)c1)O[C@H](Cc1ccc(O)c(O)c1)C(=O)O [compound 6, rosmarinic acid]
